Each block holds one molecule with its values, some of them ahead of it.
Test: solvent given as SMILES

fluorescence lifetime (in CC#N): 2.47 ns | fluorescence lifetime (in CCO): 3 ns | fluorescence lifetime (in CN(C)C=O): 2.91 ns | fluorescence lifetime (in O): 1.78 ns
Compound: CCN(CC)c1ccc2c(-c3ccc(S(=O)(=O)O)cc3S(=O)(=O)[O-])c3ccc(=[N+](CC)CC)cc-3oc2c1

fluorescence lifetime (in C1CCCCC1): 4.12 ns | fluorescence lifetime (in CCOC(C)=O): 3.81 ns | fluorescence lifetime (in CO): 1.67 ns
Compound: CCCCCCOc1ccc2oc3c(c2c1)=CC1=C(c2ccccc2C)c2cc4c5cc(OCCCCCC)ccc5oc4n2[B-](F)(F)[N+]=31

fluorescence lifetime (in C1CCOC1): 2.82 ns | fluorescence lifetime (in CC(C)O): 1.8 ns | fluorescence lifetime (in CO): 1.5 ns | fluorescence lifetime (in CS(C)=O): 2.2 ns | fluorescence lifetime (in ClC(Cl)Cl): 0.96 ns | fluorescence lifetime (in ClCCl): 3.82 ns
Compound: COc1ccccc1-c1c(-c2ccccc2O)nc(-c2ccc(C(F)(F)F)cc2)n1-c1ccc(C)cc1

fluorescence lifetime (in ClC(Cl)Cl): 5.4 ns
Compound: Cc1ccc(-c2oc3cccc4c5c(-c6ccc(C)cc6)/c(=N/S(=O)(=O)C(F)(F)F)oc6cccc(c2c34)c65)cc1

fluorescence lifetime (in ClCCl): 3.37 ns
Compound: COC(=O)c1ccc(Oc2ccc3c4c(cccc24)C(=O)N(c2c(C(C)C)cccc2C(C)C)C3=O)cc1

fluorescence lifetime (in CN(C)C=O): 4.1 ns
Compound: NCCCCCCCCCCCCN1C(=O)c2ccc3c4ccc5c6c(ccc(c7ccc(c2c37)C1=O)c64)C(=O)N(CCCCCCCCCCCCN)C5=O

fluorescence lifetime (in ClCCl): 0.58 ns
Compound: COC(=O)c1[nH]c(-c2ccc(Br)cc2)c2nnc3ccc(OC)cc3c12

fluorescence lifetime (in C1CCCCC1): 0.34 ns | fluorescence lifetime (in CC#N): 0.196 ns | fluorescence lifetime (in CCO): 0.253 ns | fluorescence lifetime (in CCOC(C)=O): 0.237 ns | fluorescence lifetime (in CO): 0.197 ns | fluorescence lifetime (in OCC(F)(F)F): 0.323 ns
Compound: Cc1ccc(C2=C3C=CC=[N+]3[B-](F)(F)n3cccc32)cc1

fluorescence lifetime (in N#Cc1ccc2c(c1)c1ccccc1n2-c1cccc(-n2c3ccccc3c3ccccc32)c1): 23.7 ns
Compound: CC1(C)c2ccccc2N(c2ccc(-c3ncc(C#N)cn3)cc2)c2ccccc21

fluorescence lifetime (in C1CCCCC1): 4.21 ns | fluorescence lifetime (in CCOC(C)=O): 4.41 ns | fluorescence lifetime (in CO): 4.44 ns
Compound: Cc1ccccc1C1=C2C=c3c(oc4ccccc34)=[N+]2[B-](F)(F)n2c1cc1c3ccccc3oc12

fluorescence lifetime (in C1CCOC1): 1.5 ns
Compound: C(=C\c1ccc(N(c2ccc(/C=C/c3ccc(N(c4ccccc4)c4ccccc4)cc3)cc2)c2ccc(-c3nc4ccccc4nc3-c3ccc(N(c4ccc(/C=C/c5ccc(N(c6ccccc6)c6ccccc6)cc5)cc4)c4ccc(/C=C/c5ccc(N(c6ccccc6)c6ccccc6)cc5)cc4)cc3)cc2)cc1)/c1ccc(N(c2ccccc2)c2ccccc2)cc1

fluorescence lifetime (in C1CCOC1): 1.62 ns
Compound: CC(C)(C)c1ccc(C2=C(c3ccc(C(C)(C)C)cc3)[Si](c3ccccc3)(c3ccccc3)c3ccccc32)cc1

fluorescence lifetime (in CN(C)C=O): 0.95 ns
Compound: CCCCCCCCC1(CCCCCCCC)c2cc(-c3ccc(C#N)cc3)ccc2-c2ccc(-c3ccc(C#N)cc3)cc21

fluorescence lifetime (in C1CCOC1): 0.21 ns
Compound: CN(C)c1ccc(C2=Nc3scc(-c4ccc(N(C)C)cc4)[n+]3[B-](F)(F)O2)cc1

fluorescence lifetime (in c1cc(-c2cccc(-n3c4ccccc4c4ccccc43)c2)cc(-n2c3ccccc3c3ccccc32)c1): 28.1 ns
Compound: CC(C)(C)c1ccc2c(c1)c1cc(C(C)(C)C)ccc1n2-c1cc(C(=O)c2ccncc2)cc(-n2c3ccc(C(C)(C)C)cc3c3cc(C(C)(C)C)ccc32)c1

The next lines start with the molecule.

Compound: CCCCCCC(CCCCCC)N1C(=O)c2cccc3c(-c4ccc(-c5ccc(OC)cc5)cc4)ccc(c23)C1=O
fluorescence lifetime (in CCCCCC): 1.35 ns | fluorescence lifetime (in CCCCCCCCCCCCCC): 1.43 ns | fluorescence lifetime (in CCCCCCCCCCCO): 3.21 ns | fluorescence lifetime (in CCCCO): 1.05 ns | fluorescence lifetime (in CN(C)C=O): 1.91 ns | fluorescence lifetime (in Cc1ccccc1): 1.4 ns | fluorescence lifetime (in ClC(Cl)Cl): 2.93 ns

Compound: NNC(=O)N1C(=O)c2cc(S(=O)(=O)[O-])cc3c(N)c(S(=O)(=O)[O-])cc(c23)C1=O
fluorescence lifetime (in O): 5.7 ns

Compound: Cc1ccc(C2=C3C=CC(c4ccccc4)=[N+]3[B-](F)(F)n3c2ccc3-c2ccccc2)cc1
fluorescence lifetime (in C1CCCCC1): 1.56 ns | fluorescence lifetime (in C1CCOC1): 1.4 ns | fluorescence lifetime (in C1COCCO1): 1.59 ns | fluorescence lifetime (in CCOC(C)=O): 1.37 ns | fluorescence lifetime (in CO): 1.22 ns | fluorescence lifetime (in Cc1ccccc1): 2.17 ns | fluorescence lifetime (in ClC(Cl)Cl): 1.97 ns

Compound: COC(=O)[C@@]12N=N[C@@H](C3C[C@H]31)[C@@H]1C[C@@H]12 (stereo partly drawn)
fluorescence lifetime (in CC#N): 9.2 ns

Compound: C=CCOc1ccc(-c2nc3cc(C(NC(=O)OC(C)(C)C)C(=O)OC)ccc3o2)cc1 (stereo not drawn)
fluorescence lifetime (in CC1CCCCC1): 1.05 ns | fluorescence lifetime (in CC#N): 1.14 ns | fluorescence lifetime (in CO): 1.21 ns

Compound: CCCCCCCCCCCCn1nnc(-c2ccc(C#Cc3ccc(C#Cc4ccc(-c5nnn(CCCCCCCCCCCC)n5)cc4)c4nc5c6ccccc6c6ccccc6c5nc34)cc2)n1
fluorescence lifetime (in C1CCOC1): 2.54 ns | fluorescence lifetime (in Cc1ccccc1): 3.55 ns | fluorescence lifetime (in ClCCl): 4.82 ns

Compound: CC1(C)c2ccccc2N(c2ccc3c(c2)c2cc(N4c5ccccc5C(C)(C)c5ccccc54)ccc2c2nc(C#N)c(C#N)nc32)c2ccccc21
fluorescence lifetime (in O=P(c1ccccc1)(c1ccccc1)c1cccc(-c2cc(-n3c4ccccc4c4ccccc43)cc(-n3c4ccccc4c4ccccc43)c2)n1): 53.7 ns

Compound: CC(=O)[B-]1(C(C)=O)OC(c2ccc3ccccc3c2)=CC(c2ccc3ccccc3c2)=[O+]1
fluorescence lifetime (in CC#N): 5.5 ns | fluorescence lifetime (in ClC(Cl)(Cl)Cl): 1.1 ns

Compound: CC1=CC(C)=[N+]2C1=C(c1ccccc1)c1c(C)c(-c3cccs3)c(C)n1[B-]2(F)F
fluorescence lifetime (in Cc1ccccc1): 3.2 ns

Compound: CCN(CC)c1ccc2cc(C#N)c(=O)oc2c1
fluorescence lifetime (in ClCCl): 2.7 ns

Compound: c1ccc(-c2nn(-c3ccccc3)c3nc4ccc(N(c5ccccc5)c5cccc6ccccc56)cc4cc23)cc1
fluorescence lifetime (in C1CCCCC1): 11.3 ns | fluorescence lifetime (in C1CCOC1): 15.5 ns | fluorescence lifetime (in CC#N): 16.3 ns | fluorescence lifetime (in CC(C)=O): 19.3 ns | fluorescence lifetime (in CCCCCl): 14.9 ns | fluorescence lifetime (in CCCCOCCCC): 12.9 ns | fluorescence lifetime (in CN(C)C=O): 15.8 ns

Compound: Cc1ccc2c(c1)c1cc(C)ccc1n2-c1cccc(-n2c3ccc(C)cc3c3cc(C)ccc32)c1C#N
fluorescence lifetime (in Cc1ccccc1): 5.5 ns | fluorescence lifetime (in O=P(c1ccccc1)(c1ccccc1)c1ccccc1Oc1ccccc1P(=O)(c1ccccc1)c1ccccc1): 6.6 ns
